Experimental data as given in patent US6825191B2, “Benzodiazepine derivatives” (Ajinomoto Co., Inc., priority 2000, dated 2004).
Where a name gives a salt, the structure may show the parent alone.

What was measured:
blood plasma = test: Determination of blood anticoagulating activity by prothrombin time (PT) determination method; assay type: biochemical, human; details: negative logarithm of concentration which elongated PT of the control to twice as long; blood plasma of healthy people
Experimental: Determination of Blood Anticoagulating Activity
The blood anticoagulating activity was determined by a prothrombin time (PT) determination method. The PT was determined as follows: The blood was taken from healthy people. 3.8% aqueous trisodium citrate solution was added to the blood in a volume ratio of 1:10. The blood plasma was separated by the centrifugation. 5 μl of DMSO solution containing a test compound was added to 45 μl of the blood plasma. After the incubation apt room temperature for 2 minutes, a test tube containing the blood plasma solution was placed in Sysmex CA-3000 fully automatic blood coagulation determination device (a product of Toa Medical Electronics Co., Ltd), and incubated at 37° C. for 3 minutes. 100 μl of Sysmex PT II (rabbit brain tissue thromboplastin, 13.2 mM calcium chloride; a product of Toa Medical Electronics Co., Ltd) was fed into the test tube. PT was automatically determined with the device. A sample containing 5 μl of DMSO in place of the solution of the test compound was used as the control. The negative logarithm (pPT2) of the concentration of the test compound which elongated PT of the control to the twice as long was determined, and employed as the index of the blood anticoagulating activity.

[1] = biological target: T1, activated human blood coagulation factor X (Homo sapiens, UniProt P00742); test: Determination of activity of inhibiting the activated blood-coagulation factor X (chromogenic substrate, initial rate); assay type: biochemical; details: negative logarithm of concentration inhibiting 50% of initial rate, tris hydrochloride buffer pH 8.4, room temperature; for IC50: read-out: Activity of inhibiting activated blood coagulation factor X (pIC50) (converted)
T1 construct: purchased Enzyme Research Co
Experimental: Determination of Activity of inhibiting the Activated Blood-coagulation Factor X
130 μl of 100 mM tris hydrochloride buffer adjusted to pH 8.4 was added to 10 μl of an aqueous solution of a compound to be tested. Then 10 μl of a 0.5 unit/ml solution of activated human blood coagulation factor X (a product of Enzyme Research Co.) in tris hydrochloride buffer of pH 8.4 was added to the resultant mixture. After the incubation at room temperature for 10 minutes, 50 μl of a solution of N-benzoyl-L-isoleucyl-L-glutamyl-glycyl-L-arginyl-P-nitroanilide hydrochloride (a product of Peptide Institute Inc.) adjusted to 0.8 mM with tris hydrochloride (pH 8.4) was added thereto. The a absorbance was determined and then the initial reaction rate was determined. A control was prepared in the same manner as that described above except that the solution of the compound to be tested was replaced with 10 μl of tris hydrochloride buffer adjusted to pH 8.4. The absorbance was determined with MICROPLATE READER Model 3550-UV (a product of BIO RAD) at a wave length of 405 nm at intervals of 15 seconds for 16 minutes.

human thrombin = biological target: T2, human thrombin (Homo sapiens, UniProt P00734); test: Determination of thrombin-inhibiting activity (chromogenic substrate S-2238, initial rate); assay type: biochemical; details: negative logarithm of concentration inhibiting 50% of initial rate, tris hydrochloride buffer pH 8.4, room temperature; for IC50: read-out: Thrombin-inhibiting activity (pIC50) (converted)
T2 construct: solution of human thrombin (a product of SIGMA Co.); purchased SIGMA Co
Experimental: Determination of Thrombin-inhibiting Activity
130 μL of 100 mM tris hydrochloride buffer adjusted to pH 8.4 was added to 10 μl of an aqueous solution of a test compound. Then 10 μl of a solution of human thrombin (a product of SIGMA Co.) adjusted to 2 units/ml with tris hydrochloride buffer of pH 8.4 was added to the resultant mixture. After the incubation at room temperature for 10 minutes, 50 μl of a solution of D-phenylalanine-L-pipecolyl-L-arginine-P-nitroanilide dihydrochloride (S-2238; a product of Daiichi Kagaku Yakuhin Co.) adjusted to 0.4 mM with tris hydrochloride buffer of pH 8.4 was added thereto. The absorbance was determined and then the initial reaction rate was determined. A control was prepared in the same manner as that described above except that the solution of the compound to be tested was replaced with 10 μl of tris hydrochloride buffer adjusted to pH 8.4. The absorbance was determined with MICROPLATE READER Model 3550-UV (a product of BIO RAD) at a wave length of 405 nm at intervals of 15 seconds for 16 minutes. The negative logarithm (pIC50) of a concentration of the test compound which inhibits 50% of the activity (initial rate) of the thrombin in the absence of the test compound was determined, and employed as the index of the activity of inhibiting thrombin.

T1 sequence (P00742 235-488 limits assumed): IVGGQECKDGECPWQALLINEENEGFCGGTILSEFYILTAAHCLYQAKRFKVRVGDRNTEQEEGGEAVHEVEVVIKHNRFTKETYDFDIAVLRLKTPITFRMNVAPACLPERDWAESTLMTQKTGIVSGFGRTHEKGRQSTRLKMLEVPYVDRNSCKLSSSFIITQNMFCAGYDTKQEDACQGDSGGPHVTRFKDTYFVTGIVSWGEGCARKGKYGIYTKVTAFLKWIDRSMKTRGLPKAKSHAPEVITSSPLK
T1 sequence (P00742 41-179 partner limits assumed): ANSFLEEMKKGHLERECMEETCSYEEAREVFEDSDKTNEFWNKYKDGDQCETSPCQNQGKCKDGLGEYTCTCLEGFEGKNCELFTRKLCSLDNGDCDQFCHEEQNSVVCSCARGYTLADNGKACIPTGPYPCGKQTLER

| Activity of inhibiting activated blood coagulation factor X (pIC50) [1] | Thrombin-inhibiting activity (pIC50) (human thrombin) | IC50 [1] [µM] | IC50 (human thrombin) [µM] | SMILES | Human blood anticoagulating activity (pPT2) (blood plasma) |
| --- | --- | --- | --- | --- | --- |
| 7.1 | <4.0 | – | – | CN1CCN=C1c1ccc(CN2C(=O)CN(C(=O)c3ccc(Cl)cc3)Cc3ccc(C(=O)O)cc32)cc1.O=C(O)C(F)(F)F [Compd. of Ex. 203, 4-(4-chlorobenzoyl)-2-oxo-1-[4-(1-methyl-4,5-dihydro-1H-imidazol-2-yl)benzyl]-2,3,4,5-tetrahydro-1H-benzoyl[e][1,4]-diazepine-8-carboxylic acid trifluoroacetate] | 5.5 |
| – | – | 0.0316 | > 100 | CN1CC[N+](C)=C1c1ccc(CN2C(=O)CN(C(=O)c3ccc(Cl)cc3)Cc3c(Cl)cccc32)cc1.O=C([O-])C(F)(F)F [Compd. of Ex. 207, 6-chloro-4-(4-chlorobenzoyl)-1-[4-(1,3-dimethyl-4,5-dihydro-1H-imidazol-3-ium-2-yl)benzyl]-1,3,4,5-tetrahydro-benzo[e][1,4]diazepin-2-on trifluoroacetate] | 5.7 |
| – | – | 0.0794 | > 100 | O=C(O)C(F)(F)F.O=C(c1ccc(CN2C(=O)CN(C(=O)c3ccc(Cl)cc3)Cc3ccccc32)nc1)N1CC=CC1 [Compd. of Ex. 181, 4-(4-chlorobenzoyl)-1-[(5-(2,5-dihydro-1H-pyrrol-1-ylcarbonyl)-2-pyridinyl)methyl]-1,3,4,5-tetrahydrobenzo[e][1,4]-diazepin-2-on trifluoroacetate] | 5.3 |
| – | – | 0.2 | > 100 | CCOC(=O)c1ccc2c(c1)N(Cc1ccc(C3=[N+](C)CCN3C)cc1)C(=O)CN(C(=O)c1ccc(Cl)cc1)C2.O=C([O-])C(F)(F)F [Compd. of Ex. 206, 2-[4-((4-(4-chlorobenzoyl)-8-(ethoxycarbonyl)-2-oxo-2,3,4,5-tetrahydro-1H-1,4-benzodiazepin-1-yl)methyl)phenyl]-1,3-dimethyl-4,5-dihydro-1H-imidazol-3-ium trifluoroacetate] | 5.5 |
| – | – | 0.316 | > 100 | CC(C)N1CCC(CCN2C(=O)CN(C(=O)c3ccc(Cl)cc3)Cc3ccccc32)CC1.O=C(O)C(F)(F)F [Compd. of Ex. 169, 4-(4-chlorobenzoyl)-1-[2-(1-isopropyl-4-piperidinyl)ethyl]-1,3,4,5-tetrahydrobenzo[e][1,4]diazepin-2-on trifluoroacetate] | 5.4 |
| – | – | 0.251 | > 100 | CN1CCN=C1c1ccc(CN2C(=O)CN(C(=O)c3ccc(Cl)cc3)Cc3ccccc32)cc1.O=C(O)C(F)(F)F [Compd. of Ex. 125, 4-(4-chlorobenzoyl)-1-[4-(1-methyl-4,5-dihydro-1H-imidazol-2-yl)benzyl]-1,3,4,5-tetrahydrobenzo[e][1,4]-diazepin-2-on trifluoroacetate] | 5.6 |

More lines, now with the values behind:

| SMILES | Activity of inhibiting activated blood coagulation factor X (pIC50) [1] | Thrombin-inhibiting activity (pIC50) (human thrombin) | IC50 [1] [µM] | IC50 (human thrombin) [µM] | Human blood anticoagulating activity (pPT2) (blood plasma) |
| --- | --- | --- | --- | --- | --- |
| CC(=N)N1CCC(Oc2ccc(CN3C(=O)CN(C(=O)c4ccc(Cl)cc4)Cc4ccc(C(=O)O)cc43)cc2)CC1.O=C(O)C(F)(F)F [Compd. of Ex. 43, 4-(4-chlorobenzoyl)-2-oxo-1-[4-(1-(1-acetimidoyl)-4-piperidyloxy)benzyl]-2,3,4,5-tetrahydro-1H-benzo[e][1,4]-diazepine-8-carboxylic acid trifluoroacetate] | 6.9 | <4.0 | – | – | 5.2 |
| O=C(O)CCc1ccc2c(c1)N(Cc1ccc(C(=O)N3CC=CC3)cc1)C(=O)CN(C(=O)c1ccc(Cl)cc1)C2 [Compd. of Ex. 65, 3-[4-(4-chlorobenzoyl)-2-oxo-1-[4-(2,5-dihydro-1H-pyrrol-1-ylcarbonyl)benzyl]-2,3,4,5-tetrahydro-1H-benzo[e][1,4]-diazepin-8-yl]propionic acid] | – | – | 0.0398 | – | 4.7 |
| O=C(O)C(F)(F)F.O=C(c1ccc(CN2C(=O)CN(C(=O)c3ccc(Cl)cc3)Cc3ccc(CCCN4CCCCC4)cc32)cc1)N1CC=CC1 [Compd. of Ex. 93, 8-(3-piperidin-1-yl-propyl)-1-[4-(2,5-dihydro-1H-pyrrol-1-ylcarbonyl)benzyl]-4-(4-chlorobenzoyl)-1,3,4,5-tetrahydro-benzo[e][1,4]diazepin-2-on trifluoroacetate] | – | – | 0.0794 | 63.1 | 5.5 |
| O=C(c1ccc(CN2C(=O)CN(C(=O)c3ccc(Cl)cc3)Cc3ccccc32)cc1)N1CC=CC1 [Compd. of Ex. 49, 1-[4-(2,5-dihydro-1H-pyrrol-1-ylcarbonyl)benzyl]-4-(4-chlorobenzoyl)-1,3,4,5-tetrahydrobenzo[e][1,4]-diazepin-2-on] | – | – | 0.0316 | 50.1 | 5.0 |
| O=C(c1ccc(CN2C(=O)CN(C(=O)c3ccc(Cl)cc3)Cc3ccc(CCCO)cc32)cc1)N1CC=CC1 [Compd. of Ex. 90] | – | – | 0.0398 | 79.4 | 5.0 |
| CC(=N)N1CCC(Oc2ccc(CN3C(=O)CN(C(=O)c4ccc(Cl)cc4)Cc4c(Cl)cccc43)cc2)CC1.O=C(O)C(F)(F)F [Compd. of Ex. 39, 6-chloro-4-(4-chlorobenzoyl)-1-[4-(1-(1-acetimidoyl)-4-piperidyloxy)benzyl]-1,3,4,5-tetrahydrobenzo[e][1,4]diazepin-2-on trifluoroacetate] | 6.7 | <4.0 | – | – | 4.8 |
| O=C(c1ccc(CN2C(=O)CN(C(=O)c3ccc(Cl)cc3)Cc3ccc(CCP(=O)(O)O)cc32)cc1)N1CC=CC1 [Compd. of Ex. 73, [2-(4-(4-chlorobenzoyl)-2-oxo-1-[4-(2,5-dihydro-1H-pyrrol-1-ylcarbonyl)benzyl]-2,3,4,5-tetrahydro-1H-benzo[e][1,4]-diazepin-8-yl)ethyl]phosphonic acid] | – | – | 0.00794 | 39.8 | 4.9 |
| N=C(c1ccc(CN2C(=O)CN(C(=O)c3ccc(Cl)cc3)Cc3ccccc32)cc1)N1CC=CC1.O=C(O)C(F)(F)F [Compd. of Ex. 107, 4-(4-chlorobenzoyl)-1-[4-(2,5-dihydro-1H-pyrrol-1-yl(imino)methyl)benzyl]-1,3,4,5-tetrahydrobenzo[e][1,4]-diazepin-2-on trifluoroacetate] | – | – | 0.0501 | > 100 | 5.5 |
| CC(C)N1CCN(C(=O)CCc2ccc3c(c2)N(Cc2ccc(C(=O)N4CC=CC4)cc2)C(=O)CN(C(=O)c2ccc(Cl)cc2)C3)CC1.O=C(O)C(F)(F)F [Compd. of Ex. 115, 4-(4-chlorobenzoyl)-1-[4-(2,5-dihydro-1H-pyrrol-1-ylcarbonyl)benzyl]-8-[3-(4-isopropyl-1-piperazinyl)-3-oxo-propyl]-1,3,4,5-tetrahydrobenzo[e][1,4]diazepin-2-on trifluoroacetate] | – | – | 0.0631 | 39.8 | 5.4 |
| O=C(c1ccc(Cl)s1)N1CC(=O)N(CC2CCN(c3ccncc3)CC2)c2ccccc2C1 [Compd. of Ex. 24, 4-(5-chlorothiophene-2-carbonyl)-1-[1-(4-pyridyl)-4-piperidylmethyl]-1,3,4,5-tetrahydrobenzo[e][1,4]diazepin-2-on trifluoroacetate] | – | – | 0.794 | > 100 | – |
